The first test deals with HT-29 cells. The test can be described thus: HT-29 cell necrosis/necroptosis inhibition (TNF-α + SMAC mimetic + zVAD-FMK; CellTiter-Glo cell viability). Conditions: Homo sapiens, HT-29, 20 h, read-out: EC50 (Cell activity; Necrosis/Necroptosis Inhibitory Activity, Compounds 1-142). In kind it is cell-based. In a few lines:
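HT-29 cells (~5,000/well) were switched to FBS-free McCOY's 5A holding TNF-α (10 ng/ml), SMAC mimetic (6 μM) and zVAD-FMK (10 μM), then dosed with a 10-point 1:3 series for 20 h at 37 °C. CellTiter-Glo luminescence gave viability; geometric mean EC50 from duplicates.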
On the technique in general: In ATP-based viability assays light output follows the ATP content of the culture.
In the case of `Cc1nnnn1-c1ccnc(N2CCN(C(=O)N3N=CC[C@H]3c3cncc(F)c3)CC2)n1` [Compound 26, (S)-(5-(5-fluoropyridin-3-yl)-4,5-dihydro-1H-pyrazol-1-yl)(4-(4-(5-methyl-1H-tetrazol-1-yl)pyrimidin-2-yl)piperazin-1-yl)methanone], the EC50 was 0.1 to 100 nM. As to `CC(=O)Nc1c(C)nn(-c2nc(N3CCN(C(=O)N4N=CC[C@H]4c4cc(F)cc(C#N)c4)CC3)ncc2F)c1C` [Compound 142, (S)—N-(1-(2-(4-(5-(3-cyano-5-fluorophenyl)-4,5-dihydro-1H-pyrazole-1-carbonyl)piperazin-1-yl)-5-fluoropyrimidin-4-yl)-3,5-dimethyl-1H-pyrazol-4-yl)acetamide], the EC50 was in the range of 0.1 to 100 nM. Turning to `Cn1cnn(-c2nc(N3CCN(C(=O)N4N=CC[C@H]4c4cc(F)cc(C#N)c4)CC3)ncc2F)c1=O` [Compound 140, (S)-3-fluoro-5-(1-(4-(5-fluoro-4-(4-methyl-5-oxo-4,5-dihydro-1H-1,2,4-triazol-1-yl)pyrimidin-2-yl)piperazine-1-carbonyl)-4,5-dihydro-1H-pyrazol-5-yl)benzonitrile], the EC50 was in the range of 0.1 to 100 nM.

Still in this test, the particulars now being: Homo sapiens; HT-29 cells, TNF-α 10 ng/ml + SMAC mimetic 6 μM + zVAD-FMK 10 μM, 20 hours; geometric mean, 10 points in duplicate; read-out: EC50 (Cell activity; Necrosis/Necroptosis Inhibitory Activity, Compounds 1-142).
Consider `Cc1nnn(C)c1-c1nc(N2CCN(C(=O)N3N=CC[C@H]3c3cc(F)cc(C#N)c3)CC2)ncc1F` [Compound 70, (S)-3-(1-(4-(4-(1,4-dimethyl-1H-1,2,3-triazol-5-yl)-5-fluoropyrimidin-2-yl)piperazine-1-carbonyl)-4,5-dihydro-1H-pyrazol-5-yl)-5-fluorobenzonitrile], for which the EC50 was in the range of 0.1 to 100 nM.

For the compound `NC(=O)c1cnn(-c2ccnc(N3CCN(C(=O)N4N=CC[C@H]4c4cccc(F)c4)CC3)n2)c1` [Compound 17, (S)-1-(2-(4-(5-(3-fluorophenyl)-4,5-dihydro-1H-pyrazole-1-carbonyl)piperazin-1-yl)pyrimidin-4-yl)-1H-pyrazole-4-carboxamide], the EC50 lay within 0.1 to 100 nM. For `Cc1nc(C)n(-c2ccnc(N3CCN(C(=O)N4N=CC[C@H]4c4cc(F)cc(F)c4)CC3)n2)n1` [Compound 100, (S)-(5-(3,5-difluorophenyl)-4,5-dihydro-1H-pyrazol-1-yl)(4-(4-(3,5-dimethyl-1H-1,2,4-triazol-1-yl)pyrimidin-2-yl)piperazin-1-yl)methanone], the EC50 lay in the range of 0.1 to 100 nM. Regarding `Cc1nn(CC2CCOCC2)c(C)c1-c1nc(N2CCN(C(=O)N3N=CC[C@H]3c3cc(F)cc(F)c3)CC2)ncc1F` [Compound 122, (S)-(5-(3,5-difluorophenyl)-4,5-dihydro-1H-pyrazol-1-yl)(4-(4-(3,5-dimethyl-1-((tetrahydro-2H-pyran-4-yl)methyl)-1H-pyrazol-4-yl)-5-fluoropyrimidin-2-yl)piperazin-1-yl)methanone], the EC50 lay in the range of 0.1 to 100 nM.

For the compound `COCCn1nc(C)c(-c2nc(N3CCN(C(=O)N4N=CC[C@H]4c4cc(F)cc(F)c4)CC3)ncc2F)c1C` [Compound 120, (S)-(5-(3,5-difluorophenyl)-4,5-dihydro-1H-pyrazol-1-yl)(4-(5-fluoro-4-(1-(2-methoxyethyl)-3,5-dimethyl-1H-pyrazol-4-yl)pyrimidin-2-yl)piperazin-1-yl)methanone], the EC50 lay within 0.1 to 100 nM. Consider `N#Cc1cncc([C@@H]2CC=NN2C(=O)N2CCN(c3nccc(-c4cc[nH]n4)n3)CC2)c1` [Compound 38, (S)-5-(1-(4-(4-(1H-pyrazol-3-yl)pyrimidin-2-yl)piperazine-1-carbonyl)-4,5-dihydro-1H-pyrazol-5-yl)nicotinonitrile], for which the EC50 fell in the range of 0.1 to 100 nM.

On to `COc1nc(OC)c(-c2nc(N3CCN(C(=O)N4N=CC[C@H]4c4cc(F)cc(F)c4)CC3)ncc2F)c(OC)n1` [Compound 49, (S)-(5-(3,5-difluorophenyl)-4,5-dihydro-1H-pyrazol-1-yl)(4-(5-fluoro-2′,4′,6′-trimethoxy-[4,5′-bipyrimidin]-2-yl)piperazin-1-yl)methanone], for which the EC50 was 0.1 to 100 nM.

In the case of `Cc1nn(C)cc1-c1nc(N2CCN(C(=O)N3N=CC[C@H]3c3cc(F)cc(F)c3)CC2)ncc1F` [Compound 14, (S)-(5-(3,5-difluorophenyl)-4,5-dihydro-1H-pyrazol-1-yl)(4-(4-(1,3-dimethyl-1H-pyrazol-4-yl)-5-fluoropyrimidin-2-yl)piperazin-1-yl)methanone], the EC50 was 0.1 to 100 nM.

The test is the same for the next values; noted with them: Homo sapiens; HT-29 cells, TNF-α 10 ng/ml + SMAC mimetic 6 μM + zVAD-FMK 10 μM, 20 hours; geometric mean, 10 points in duplicate; read-out: EC50 (Cell activity; Necrosis/Necroptosis Inhibitory Activity, Compounds 143-323).
For `Cc1cnn(C)c1-c1nc(N2CCN(C(=O)N3N=CC[C@H]3c3cc(F)cc(F)c3)CC2)sc1CO` [Compound 267, (S)-(5-(3,5-difluorophenyl)-4,5-dihydro-1H-pyrazol-1-yl)(4-(4-(1,4-dimethyl-1H-pyrazol-5-yl)-5-(hydroxymethyl)thiazol-2-yl)piperazin-1-yl)methanone], the 50% effective concentration (EC50) was 1000 to 10000 nM.

Consider `Cc1nn(-c2ccnc(N3CCN(C(=O)N4N=CC[C@H]4c4cncc(F)c4)CC3)n2)c(C)c1C(N)=O` [Compound 285, (S)-1-(2-(4-(5-(5-fluoropyridin-3-yl)-4,5-dihydro-1H-pyrazole-1-carbonyl)piperazin-1-yl)pyrimidin-4-yl)-3,5-dimethyl-1H-pyrazole-4-carboxamide], for which the EC50 was 0.1 to 100 nM. With `Cc1cnn(C)c1-c1ncc(F)c(N2CCN(C(=O)N3N=CC[C@H]3c3cc(F)cc(F)c3)CC2)n1` [Compound 301, (S)-(5-(3,5-difluorophenyl)-4,5-dihydro-1H-pyrazol-1-yl)(4-(2-(1,4-dimethyl-1H-pyrazol-5-yl)-5-fluoropyrimidin-4-yl)piperazin-1-yl)methanone], the concentration giving a half-maximal response (EC50) is 0.1 to 100 nM. Regarding `Cc1nc(C)n(-c2cc(N3CCN(C(=O)N4N=CC[C@H]4c4cc(F)cc(C#N)c4)CC3)c(F)cn2)n1` [Compound 272, (S)-3-(1-(4-(2-(3,5-dimethyl-1H-1,2,4-triazol-1-yl)-5-fluoropyridin-4-yl)piperazine-1-carbonyl)-4,5-dihydro-1H-pyrazol-5-yl)-5-fluorobenzonitrile], the 50% effective concentration (EC50) lay within 0.1 to 100 nM. Turning to `Cc1nc(C)n(-c2nc(N3CCN(C(=O)N4N=CCC4c4csc(C)n4)CC3)ncc2Cl)n1` (stereo not shown) [Compound 224, (4-(5-chloro-4-(3,5-dimethyl-1H-1,2,4-triazol-1-yl)pyrimidin-2-yl)piperazin-1-yl)(5-(2-methylthiazol-4-yl)-4,5-dihydro-1H-pyrazol-1-yl)methanone], the EC50 is 100 to 1000 nM. In the case of `Cc1nn(-c2cc(N3CCN(C(=O)N4N=CC[C@H]4c4cc(F)cc(F)c4)CC3)ncn2)c(C)c1C#N` [Compound 280, (S)-1-(6-(4-(5-(3,5-difluorophenyl)-4,5-dihydro-1H-pyrazole-1-carbonyl)piperazin-1-yl)pyrimidin-4-yl)-3,5-dimethyl-1H-pyrazole-4-carbonitrile], the concentration giving a half-maximal response (EC50) is 0.1 to 100 nM. As to `Cc1ncc(C2CC=NN2C(=O)N2CCN(c3cc(-c4c(C)cnn4C)ncc3F)CC2)s1` (stereo not shown) [Compound 292, (4-(2-(1,4-dimethyl-1H-pyrazol-5-yl)-5-fluoropyridin-4-yl)piperazin-1-yl)(5-(2-methylthiazol-5-yl)-4,5-dihydro-1H-pyrazol-1-yl)methanone], the EC50 was in the range of 100 to 1000 nM. With `N#Cc1cc(F)cc([C@@H]2CC=NN2C(=O)N2CCN(c3ncc(F)c(-n4nccc4C(F)(F)F)n3)CC2)c1` [Compound 304, (S)-3-fluoro-5-(1-(4-(5-fluoro-4-(5-(trifluoromethyl)-1H-pyrazol-1-yl)pyrimidin-2-yl)piperazine-1-carbonyl)-4,5-dihydro-1H-pyrazol-5-yl)benzonitrile], the EC50 lay in the range of 0.1 to 100 nM. Same read-out and setting: next, `Cc1nc(CO)nn1-c1nc(N2CCN(C(=O)N3N=CC[C@H]3c3cc(F)cc(C#N)c3)CC2)ncc1F` [Compound 144, (S)-3-fluoro-5-(1-(4-(5-fluoro-4-(3-(hydroxymethyl)-5-methyl-1H-1,2,4-triazol-1-yl)pyrimidin-2-yl)piperazine-1-carbonyl)-4,5-dihydro-1H-pyrazol-5-yl)benzonitrile]: 0.1 to 100 nM; `Cn1nc(C#N)nc1-c1nc(N2CCN(C(=O)N3N=CCC3c3cncc(F)c3)CC2)ncc1F` (stereo not shown) [Compound 229, 5-(5-fluoro-2-(4-(5-(5-fluoropyridin-3-yl)-4,5-dihydro-1H-pyrazole-1-carbonyl)piperazin-1-yl)pyrimidin-4-yl)-1-methyl-1H-1,2,4-triazole-3-carbonitrile]: 0.1 to 100 nM; `Cc1nc(C(N)=O)nn1-c1nc(N2CCN(C(=O)N3N=CC[C@H]3c3cncc(F)c3)CC2)ncc1F` [Compound 253, (S)-1-(5-fluoro-2-(4-(5-(5-fluoropyridin-3-yl)-4,5-dihydro-1H-pyrazole-1-carbonyl)piperazin-1-yl)pyrimidin-4-yl)-5-methyl-1H-1,2,4-triazole-3-carboxamide]: 0.1 to 100 nM. On to `Cc1nn(-c2nc(N3CCN(C(=O)N4N=CC[C@H]4c4cc(F)cc(C#N)c4)CC3)ncc2F)c(C)c1NC(=O)C1CC1` [Compound 192, (S)—N-(1-(2-(4-(5-(3-cyano-5-fluorophenyl)-4,5-dihydro-1H-pyrazole-1-carbonyl)piperazin-1-yl)-5-fluoropyrimidin-4-yl)-3,5-dimethyl-1H-pyrazol-4-yl)cyclopropanecarboxamide], for which the EC50 lay in the range of 0.1 to 100 nM. Turning to `Cc1nc(C#N)nn1-c1nc(N2CCN(C(=O)N3N=CC[C@H]3c3cncc(F)c3)CC2)ncc1F` [Compound 255, (S)-1-(5-fluoro-2-(4-(5-(5-fluoropyridin-3-yl)-4,5-dihydro-1H-pyrazole-1-carbonyl)piperazin-1-yl)pyrimidin-4-yl)-5-methyl-1H-1,2,4-triazole-3-carbonitrile], the EC50 lay in the range of 0.1 to 100 nM. On to `Cc1cnn(C)c1-c1ccc(F)c(N2CCN(C(=O)N3N=CCC3c3cccnc3)CC2)n1` (stereo not shown) [Compound 295, (4-(6-(1,4-dimethyl-1H-pyrazol-5-yl)-3-fluoropyridin-2-yl)piperazin-1-yl)(5-(pyridin-3-yl)-4,5-dihydro-1H-pyrazol-1-yl)methanone], for which the EC50 was in the range of 0.1 to 100 nM.

Usually EC50 stands for the midpoint of the concentration-response curve.

The record behind these values is patent US12454529B2, “Piperazine cyclic ureas” (SIRONAX LTD., priority 2020, dated 2025).
